# Key:
# [1] = system: α7 integrin (LacZ reporter in α7βgal+/− myoblasts); experiment: Myoblast α7+/LacZ integrin FDG assay (Burkin assay in myoblasts, 96-well); format: cell-based, mouse; conditions: SU9516 analogs, 96-well, N=3-6
# [2] = system: α7 integrin (LacZ reporter in α7+/LacZ myotubes); experiment: Myotube α7 integrin FDG assay (Burkin assay in myotubes, 96-well); format: cell-based, mouse; conditions: for Burkin Assay in Myotubes, value relative to DMSO: SU9516 analogs, 96-well, N=3-6
# [3] = system: β-galactosidase in CMV-LacZ C2C12 myoblasts; experiment: CMV-LacZ secondary screen in C2C12 myoblasts (β-Gal stabilizing assay); format: cell-based, mouse; conditions: for CMV-LACZ in Myoblasts, value relative to DMSO: SU9516 analogs, C2C12 CMV-LacZ, N=2
# Procedure, shortened: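 CMV-LacZ C2C12 line (clonal, FDG-screened); myoblasts/myotubes dosed 0.5–40 μM (0.5, 1, 5, 10, 20, 40 μM); n=2 per point; β-gal stabilization read-out.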
# [4] = system: β-galactosidase in CMV-LacZ C2C12 myotubes; experiment: CMV-LacZ secondary screen in C2C12 myotubes (β-Gal stabilizing assay); format: cell-based, mouse; conditions: for CMV-LACZ in Myotubes, value relative to DMSO: SU9516 analogs, C2C12 CMV-LacZ, N=2
# Procedure, shortened: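 First, C2C12 myoblasts were transfected with a linearized CMV-LACZ vector and clonal lines selected by FDG β-gal assay. Then cells were exposed to compounds at 0.5, 1, 5, 10, 20 and 40 μM in 96-well format, two replicates each, and β-gal measured.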
# [5] = system: α7 Integrin protein in C2C12 myotubes; experiment: Western blot of α7 integrin protein in C2C12 myotubes; format: cell-based, mouse; conditions: 12 μM, 48 hours, α7B Integrin normalized to GAPDH
# Protocol: Bands were quantified using Image J software and then graphed as α7 Integrin protein levels relative to GAPDH protein levels. * denotes a significant difference in relative protein levels with ** p<0.01.
# C2C12 myotubes were treated for 48 hours with each hit compound, washed with PBS, then scraped and pelleted using standard procedures. Cell pellets were resuspended in RIPA buffer and protein concentration determined by BCA. Approximately 10 μg of protein was loaded per lane and separated on 8% SDS-PAGE gels and transferred to nitrocellulose using standard conditions. Blots were probed using α7A and α7B integrin specific rabbit polyclonal antibody as previously described and […].
# Western blot analysis of the myotube protein extracts were then performed for α7B Integrin and normalized to GAPDH (FIGS. 8A and 8B).
# Immunoblot analysis is used to assess the protein level expression in treated and control cells. C2C12 and human DMD myoblasts and myotubes are cultured in triplicate experiments and treated with lead compounds or DMSO as described above. Cells are harvested using a cell scraper and extracted proteins. Extracted protein is quantified by a Bradford assay. […] A LiCoR Odyssey scanner and software is used to quantify band intensities and statistical significance (p<0.05) is determined using ANOVA.
# [6] = system: α7 integrin (LacZ reporter in α7LacZ+/− myoblasts); experiment: qHTS of the LOPAC library and MLSMR (online screen, α7LacZ+/− myoblasts); conditions: LOPAC library
# Protocol: A total of 250 α7LacZ^+/− myoblasts at passage 13 were dispensed using a multidrop (Thermo) into black low base tissue culture treated microclear aurora plates in 6 μl media containing DMEM without phenol, 5% FBS, 1× GluMax and 1× Penicillin/Streptomycin. […] Compounds were then dispensed using a Kalypsys pintool to deliver 23 nl/well compounds in DMSO (diluted into 6 μl resulting in a 1:260 dilution of compound). […] After incubation with compound, 5 μl of the media was aspirated using the Kalypsys washer/dispenser and 3 μl of the Mammalian Protein Extraction Reagent (MPER) lysis buffer (Thermo Fisher) was added. […] The plates were then incubated for 10 minutes at room temperature.
# The assay was adapted for a high-throughput screen with the fully automated Kalypsys robotic system using 1536 well plates at NCGC.
smiles,measurement,setting,value
Cc1[nH]c(/C=C2\C(=O)Nc3ccc(S(=O)(=O)Cc4c(Cl)cccc4Cl)cc32)c(C)c1C(=O)C1CCCN1CN1CCCC1 (centres unmarked) [NCGC00242500-01],"Burkin Assay in Myoblasts, value relative to DMSO",[1]; 0.5 uM,1.052
same,"Burkin Assay in Myoblasts, value relative to DMSO",[1]; 1 uM,1.076
same,"Burkin Assay in Myoblasts, value relative to DMSO",[1]; 5 uM,0.8704
same,"Burkin Assay in Myoblasts, value relative to DMSO",[1]; 10 uM,0.5879
same,"Burkin Assay in Myoblasts, value relative to DMSO",[1]; 20 uM,0.01841
same,"Burkin Assay in Myoblasts, value relative to DMSO",[1]; 40 uM,0.01945
same,"Burkin Assay in Myotubes, value relative to DMSO",[2]; 0.5 uM,0.9974
same,"Burkin Assay in Myotubes, value relative to DMSO",[2]; 1 uM,0.9391
same,"Burkin Assay in Myotubes, value relative to DMSO",[2]; 5 uM,0.9422
same,"Burkin Assay in Myotubes, value relative to DMSO",[2]; 10 uM,0.7534
same,"Burkin Assay in Myotubes, value relative to DMSO",[2]; 20 uM,0.652
same,"Burkin Assay in Myotubes, value relative to DMSO",[2]; 40 uM,0.2132
same,"CMV-LACZ in Myoblasts, value relative to DMSO",[3]; 0.5 uM,1.1021
same,"CMV-LACZ in Myoblasts, value relative to DMSO",[3]; 1 uM,1.1446
same,"CMV-LACZ in Myoblasts, value relative to DMSO",[3]; 5 uM,1.6977
same,"CMV-LACZ in Myoblasts, value relative to DMSO",[3]; 10 uM,2.4909
same,"CMV-LACZ in Myoblasts, value relative to DMSO",[3]; 20 uM,0.3570
same,"CMV-LACZ in Myoblasts, value relative to DMSO",[3]; 40 uM,0.4237
same,"CMV-LACZ in Myotubes, value relative to DMSO",[4]; 0.5 uM,1.2482
same,"CMV-LACZ in Myotubes, value relative to DMSO",[4]; 1 uM,1.9682
same,"CMV-LACZ in Myotubes, value relative to DMSO",[4]; 5 uM,2.2432
same,"CMV-LACZ in Myotubes, value relative to DMSO",[4]; 10 uM,3.3039
same,"CMV-LACZ in Myotubes, value relative to DMSO",[4]; 20 uM,5.2430
same,"CMV-LACZ in Myotubes, value relative to DMSO",[4]; 40 uM,7.0800
"COc1ccc2c(c1)/C(=C/c1cnc[nH]1)C(=O)N2 [SU9516, 3-[1-(3H-imidazol-4-yl)-meth-(Z)-ylidene]-5-methoxy-1,3-dihydro-indol-2-one, reference compound]",EC50,"[2]; Mus musculus, Myotube, read-out: EC50 α7+/LacZ MT",6 µM
same,activity in C2C12 CMV-LACZ myoblasts,[3],showed activity
same,activity in C2C12 CMV-LACZ myotubes,[4],showed activity
same,increase in α7 Integrin protein levels compared to DMSO treated controls,[5],approximately 1.6 fold
same,outcome of preliminary LOPAC library screen,[6],hit

# — US9980943B2, “Methods of treating muscular dystrophy” (BOARD OF REGENTS OF THE NEVADA SYSTEM OF HIGHER EDUCATION, …, priority 2013, dated 2018)
